The text below walks through data of US6864046B1, “Method for collecting and preserving semen” (Texas Tech University, priority 2000, dated 2005).

The subject of this assay is spermatozoa. The conditions noted are these: calcium compound substituted for calcium chloride in Ringer's lactate; culturing 1-24 hr.

Turning to calcium gluconate, the “semen function (percent motility, FIGS. 5a and 5b)” value is listed as “maintained best”.

Turning to calcium phosphate, the “semen function (percent motility, FIGS. 5a and 5b)” value is “maintained best”.

As for `O=C([O-])[O-].[Ca+2]` [calcium carbonate], the “semen function (percent motility, FIGS. 5a and 5b)” value is listed as “maintained best”.
